Reference: patent publication US20240010606A1, “FUMARATE DERIVATIVES AND THEIR MEDICAL USE” (Sitryx Therapeutics Limited, priority 2020, published 2024)

Columns and labels:
IL-1β = test: THP-1 AlphaLISA IL-1β cytokine assay; type: cell-based; details: Homo sapiens, differentiated THP-1 cells
How it was run: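 THP-1 cells differentiated 72 h with PMA, pre-incubated 30 min with compounds, stimulated 24 h with LPS, then 1 h with nigericin, all at 37 °C. Supernatant cytokine measured by AlphaLISA; % inhibition normalised to ±LPS controls and IC50 taken from concentration-response curves.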

hepatocytes [1] = test: Hepatocyte stability assay, human; type: in vitro ADME; details: 10 μM compound
How it was run: (§1)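 Cryopreserved hepatocytes (viability >70%) at 0.5×10^6 cells/mL in Leibovitz buffer, preincubated 10 min at 37 °C, then compound at 10 μM (0.1% DMSO) in duplicate; buffer-only incubations as control. Samples at 0-60 min quenched in acetonitrile, analysed by LC-MS/MS; half-life and CLint (μL min^−1 10^−6 cells) from ln % remaining versus time.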

[2] = Hepatocyte stability assay, human; type: in vitro ADME; details: cryopreserved hepatocytes, 10 μM compound
How it was run: as §1

IL-6 = test: THP-1 AlphaLISA IL-6 cytokine assay; type: cell-based; details: Homo sapiens
Method: Biological Example 1—THP-1 AlphaLISA IL-1β and IL-6 Cytokine Assay Measuring Inhibitory Effects on IL-1, and IL-6 Cytokine Output from THP-1s The cytokine inhibition profiles of compounds of formula (I) were determined in a differentiated THP-1 cell assay. All assays were performed in RPMI-1640 growth medium (Gibco), supplemented with 10% fetal bovine serum (FBS; Gibco), 1% penicillin-streptomycin and 1% sodium pyruvate unless specified otherwise. The IL-1β and IL-6 cytokine inhibition assays were each run in a background of differentiated THP-1 cells as described below. All reagents described were from Sigma-Aldrich unless specified otherwise. Compounds were prepared as 10 mM DMSO stocks. THP-1 cells were expanded as a suspension up to 80% confluence in appropriate growth medium. Cells were harvested, suspended, and treated with an appropriate concentration of phorbol 12-myristate 13-acetate (PMA) over a 72 hr period (37° C./5% CO2). Following 72 hrs of THP-1 cell incubation, cellular medium was removed and replaced with fresh growth media containing 1% of FBS. Working concentrations of compounds were prepared separately in 10% FBS treated growth medium and pre-incubated with the cells for 30 minutes (37° C./5% CO2). Following the 30 minute compound pre-incubation, THP-1s were treated with an appropriate concentration of LPS and the THP-1s were subsequently incubated for a 24 hr period (37° C./5% CO2). An appropriate final concentration of Nigericin was then dispensed into the THP-1 plates and incubated for 1 hour (37° C./5% CO2) before THP-1 supernatants were harvested and collected in separate polypropylene 96-well holding plates. Reagents from each of the IL-1β and IL-6 commercial kits (Perkin Elmer) were prepared and run according to the manufacturer's instructions. Subsequently, fluorescence signal detection in a microplate reader was measured (EnVision® Multilabel Reader, Perkin Elmer). Percentage inhibition was calculated per cytokine by normalizing the sample data to the high and low controls used within each plate (+/−LPS respectively). Percentage inhibition was then plotted against compound concentration and the 50% inhibitory concentration (IC50) was determined from the resultant concentration-response curve.

hepatocytes [3] = test: Hepatocyte stability assay, mouse; type: in vitro ADME; details: 10 μM compound
How it was run: as §1

[4] = Hepatocyte stability assay, mouse; type: in vitro ADME; details: mouse, cryopreserved hepatocytes, 10 μM compound
How it was run: as §1

NRF2 = NRF2 activation assay (DiscoverX PathHunter NRF2 translocation kit, U2OS cells); type: cell-based
How it was run: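 PathHunter U2OS cells, grown 24 h at 37 °C/5% CO2, treated 6 h with compound; NRF2 nuclear translocation read as enzyme-fragment-complementation chemiluminescence. Activation normalised to dimethyl fumarate high and untreated low controls; EC50 from concentration-response curve.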

[5] = THP-1, differentiated THP-1 cells, LPS then Nigericin, Table 1
[6] = +GSH, normalised to dimethyl fumarate high control, Table 3
[7] = −GSH, normalised to dimethyl fumarate high control, Table 3
[8] = +GSH, Table 4, compounds of formula (II)
[9] = −GSH, Table 4, compounds of formula (II)

Question: What does the source list for `O=C(O)COC(=O)/C=C/C(=O)OC1CCCCCCC1` [Example 1, (E)-2-((4-(cyclooctyloxy)-4-oxobut-2-enoyl)oxy)acetic acid]?
Answer: IC50 (IL-1β; LPS then Nigericin, Table 1): 2.5 to 6.1 µM; CIint (hepatocytes [1]; Table 5): ++++ (++++ means <50); half-life at 10 μM ([2]; Table 5, read-out: T½): 30 to 100 min; IC50 (IL-6; [5]): < 2.5 µM; CIint (hepatocytes [3]; Table 5): + (+ means >277); half-life at 10 μM ([4]; Table 5, read-out: T½): < 5 min; EC50 (NRF2; +GSH, Table 3): 6 to 20 µM; NRF2 activation Emax (NRF2; [6]): ++ (++ means 100-149); EC50 (NRF2; −GSH, Table 3): < 2 µM; NRF2 activation Emax (NRF2; [7]): ++++ (++++ means 200-250%)

Question: Which IC50 (IL-1β; LPS then Nigericin, Table 1) does the source give for `O=C(O)COC(=O)/C=C/C(=O)OC1CCCCC1` [Example 2, (E)-2-((4-(cyclohexyloxy)-4-oxobut-2-enoyl)oxy)acetic acid] here?
Answer: 9.3 to 14.3 µM

Question: And the CIint (hepatocytes [1]; Table 5)?
Answer: ++++ (++++ means <50)

Question: What about the half-life at 10 μM ([2]; Table 5, read-out: T½) of the same compound?
Answer: 30 to 100 min

Question: What about the IC50 (IL-6; [5]) of the same compound?
Answer: 6.2 to 9.2 µM

Question: What about the CIint (hepatocytes [3]; Table 5) of the same compound?
Answer: ++ (++ means 200-277)

Question: And the half-life at 10 μM ([4]; Table 5, read-out: T½)?
Answer: 5 to 10 min

Question: And the EC50 (NRF2; +GSH, Table 3)?
Answer: 20 to 100 µM

Question: And the “NRF2 activation Emax” value (NRF2; [6])?
Answer: + (+ means >17.1-99)

Question: And the EC50 (NRF2; −GSH, Table 3)?
Answer: 2.1 to 6 µM

Question: What about the “NRF2 activation Emax” value (NRF2; [7]) of the same compound?
Answer: ++++ (++++ means 200-250%)

Question: Which IC50 (IL-1β; LPS then Nigericin, Table 1) does the source give for `O=C(O)CCOC(=O)/C=C/C(=O)OC1CCCCCCC1` [Example 3, (E)-3-((4-(Cyclooctyloxy)-4-oxobut-2-enoyl)oxy)propanoic acid] here?
Answer: < 2.5 µM

Question: What about the CIint (hepatocytes [1]; Table 5) of the same compound?
Answer: +++ (+++ means 50-149)

Question: And the half-life at 10 μM ([2]; Table 5, read-out: T½)?
Answer: 5 to 29 min

Question: And the IC50 (IL-6; [5])?
Answer: < 2.5 µM

Question: And the CIint (hepatocytes [3]; Table 5)?
Answer: + (+ means >277)

Question: What about the half-life at 10 μM ([4]; Table 5, read-out: T½) of the same compound?
Answer: < 5 min

Question: What about the EC50 (NRF2; +GSH, Table 3) of the same compound?
Answer: 20 to 100 µM

Question: What about the “NRF2 activation Emax” value (NRF2; [6]) of the same compound?
Answer: ++ (++ means 100-149)

Question: And the EC50 (NRF2; −GSH, Table 3)?
Answer: < 2 µM

Question: And the “NRF2 activation Emax” value (NRF2; [7])?
Answer: ++++ (++++ means 200-250%)

Question: What does the source list for `O=C(O)CCOC(=O)/C=C/C(=O)OC1CCCCC1` [Example 4, (E)-3-((4-(cyclohexyloxy)-4-oxobut-2-enoyl)oxy)propanoic acid]?
Answer: IC50 (IL-1β; LPS then Nigericin, Table 1): 2.5 to 6.1 µM; CIint (hepatocytes [1]; Table 5): +++ (+++ means 50-149); half-life at 10 μM ([2]; Table 5, read-out: T½): 5 to 29 min; IC50 (IL-6; [5]): < 2.5 µM; IC50 (IL-6; THP-1, from repeated experiments, Table 1): 2.5 to 6.1 µM; CIint (hepatocytes [3]; Table 5): + (+ means >277); half-life at 10 μM ([4]; Table 5, read-out: T½): < 5 min; EC50 (NRF2; +GSH, Table 3): 6 to 20 µM; NRF2 activation Emax (NRF2; [6]): + (+ means >17.1-99); EC50 (NRF2; −GSH, Table 3): 2.1 to 6 µM; NRF2 activation Emax (NRF2; [7]): +++ (+++ means 150-199%)

Question: Which results are given for `O=C(O)COC(=O)/C=C/C(=O)OC1(c2ccc(C(F)(F)F)cc2)CCC1` [Example 15, (E)-2-((4-oxo-4-(1-(4-(trifluoromethyl)phenyl)cyclobutoxy)but-2-enoyl)oxy) acetic acid]?
Answer: IC50 (IL-1β; LPS then Nigericin, Table 1): < 2.5 µM; CIint (hepatocytes [1]; Table 5): +++ (+++ means 50-149); half-life at 10 μM ([2]; Table 5, read-out: T½): 5 to 29 min; IC50 (IL-6; [5]): 2.5 to 6.1 µM; CIint (hepatocytes [3]; Table 5): + (+ means >277); half-life at 10 μM ([4]; Table 5, read-out: T½): < 5 min; EC50 (NRF2; +GSH, Table 3): > 100 µM; NRF2 activation Emax (NRF2; [6]): + (+ means >17.1-99); EC50 (NRF2; −GSH, Table 3): 2.1 to 6 µM; NRF2 activation Emax (NRF2; [7]): +++ (+++ means 150-199%)

Question: Which IC50 (IL-1β; Table 2, compounds of formula (II)) does the source give for `O=C(O)/C=C/C(=O)OC1(c2ccc(C(F)(F)F)cc2)CCC1` [Intermediate 3, (E)-4-oxo-4-(1-(4-(trifluoromethyl)phenyl)cyclobutoxy)but-2-enoic acid] here?
Answer: < 6 µM

Question: What about the CIint (hepatocytes [1]; Table 6) of the same compound?
Answer: ++++ (++++ means 5-15)

Question: What about the half-life at 10 μM ([2]; Table 6, read-out: T½) of the same compound?
Answer: > 100 min

Question: What about the IC50 (IL-6; differentiated THP-1 cells, Table 2, compounds of formula (II)) of the same compound?
Answer: < 6 µM

Question: And the CIint (hepatocytes [3]; Table 6)?
Answer: +++ (+++ means >15-30)

Question: What about the half-life at 10 μM ([4]; Table 6, read-out: T½) of the same compound?
Answer: 30 to 100 min

Question: What about the EC50 (NRF2; [8]) of the same compound?
Answer: < 23 µM

Question: And the “NRF2 activation Emax” value (NRF2; [8])?
Answer: +++ (+++ means >114-150%)

Question: And the EC50 (NRF2; [9])?
Answer: < 23 µM

Question: And the “NRF2 activation Emax” value (NRF2; [9])?
Answer: +++ (+++ means >114-150%)
